Reference: patent publication US4603016A, “Cryogenic brine separation of water and isocyanates” (E. I. Du Pont de Nemours and Company, priority 1985, dated 1986)

Test: storage stability of isolated MIC preparations (GC determination of MIC content immediately following collection and after storage for two weeks)
Assay type: physicochemical
Conditions: for % MIC After Storage / % MIC As Isolated: GC; for % MIC After Storage: after storage for two weeks; for % MIC As Isolated: immediately following collection
Method: This example illustrates the stability of MIC preparations isolated by the process of the present invention. The procedure described in Example 1 was substantially repeated at MMF liquid feed rates of 2 mL/min. As described in Example 3, samples of the product of the brine condenser were collected for one hour periods, weighed, and yields estimated. Each sample was then analyzed by GC to determine MIC content immediately following collection, and again after storage for two weeks.

CN=C=O [MIC, methyl isocyanate]
% MIC After Storage (1st hr sample): 92.3%
% MIC As Isolated (1st hr sample): > 98%
% MIC After Storage (2nd hr sample): 92.3%
% MIC As Isolated (2nd hr sample): > 98%
% MIC After Storage (3rd hr sample): 93.1%
% MIC As Isolated (3rd hr sample): > 98%
% MIC After Storage (4th hr sample): 95.0%
% MIC As Isolated (4th hr sample): > 98%
% MIC After Storage (5th hr sample): 95.4%
% MIC As Isolated (5th hr sample): > 98%
degradation of product MIC during storage (storage for two weeks, all samples): minimal degradation
